# Results taken from US9163077B2, “RhoC-based immunotherapy” (RHOVAC APS, priority 2007, dated 2015).
# No end group written: not given here.
# How the values were obtained:
# HLA-A3 = HLA-A3 (Homo sapiens, UniProt P04439); test: Assembly assay for peptide binding to MHC class I molecules; conditions: HLA-A3, lysate of T2-A3 cells, FIG. 2; read-out: peptide concentration required for half maximal recovery of class I MHC molecules (C50 value)
# Experimental: The binding affinity of the synthetic peptides (Genscript, Scotch Plains, US) to HLA-A3 molecules was measured by means of the assembly assay as described (13). The assay is based on the stabilization of the class I molecule after loading of different concentrations of peptide to the TAP-deficient cell line T2-A3. Briefly, T2-A3 cells were incubated in methionine-free RPMI 1640 (Gibco BRL, Paisley, UK) with 10% dialysed FCS. Subsequently, cells were metabolically labelled with 50 μCi ^35S-methionine (Amersham, Birkeroed, Denmark). […] Cell nuclei were removed by ultracentrifugation. The supernatant of T2-A3 cells was heated for 5 min at 45° C. in order to reduce background signals by preferentially destabilizing empty HLA-A3. The samples were precleared by addition of Pansorbin (Calbiochem, Darmstadt, Germany) and left on rotation overnight. Stably folded HLA molecules were immune-precipitated using the HLA class I-specific, conformation-dependent mAb W6/32. A-Sepharose beads were added to collect the folded MHC complexes and separated by isoelectric focusing gel electropheresis. MHC heavy chains were quantified using the ImageGauge Phosphorimager program (FUJI Photo Film). The intensity of the band is directly related to the amount of peptide-bound class I MHC complex recovered during the assay. Subsequently, the extent of stabilization of HLA-A3 is directly related to the binding affinity of the added peptide. The C50-value was calculated for each peptide as the peptide concentration sufficient for half maximal stabilization.
# T2-A3 cells = test: 51Cr-release cytotoxicity assay, peptide-pulsed T2-A3 target cells; assay type: cell-based, human; conditions: for lysis of peptide-pulsed T2-A3 cells by CTL clone 9: FIG. 4b; for lysis of peptide-pulsed T2-A3 cells by Rho1L2-stimulated CTL bulk cultures: bulk culture from MM patient after four restimulations, FIG. 4a, unpulsed cells not lysed
# Experimental: (§1) PBL from a melanoma (MM) patient were stimulated with irradiated (20 Gy) autologous Rho1L2-loaded DC (PBL:DC ratio=3×10^6:3×10^5). The following day 120 U/ml IL-2 (PeproTech, London, UK) was added. Stimulation of the cultures were carried out every 10 days with Rho1L2-loaded irradiated autologous DC (2×) followed by Rho1L2-loaded irradiated autologous PBL (3×). Hundred and twenty U/ml IL-2 (PeproTech, London, UK) was added after each stimulation. After one month growing cultures were tested for specificity for Rho1L2.
# (§2) PBL from a specific culture were cloned by limiting dilution in the presence of cloning mix containing 10^6/ml irradiated (20 Gy) lymphocytes from three healthy donors in X-vivo with 5% heat-inactivated human serum, 25 mM HEPES buffer (GibcoBRL, Paisley, UK), and 120 U/ml IL-2 (PeproTech, London, UK). The plates were incubated at 37° C./5% CO2. Every 3-4 days 50 μl fresh media were added containing IL-2 to a final concentration of 120 U/ml. Growing clones were expanded using cloning mix cells (5×10^4 cells/well) and IL-2. After expansion the clones were tested for specificity and cytotoxic potential in a standard ^51Cr-release assay.
# Conventional ^51Cr-release assays for CTL-mediated cytotoxicity were carried out as described elsewhere (Andersen et al., (1999) J Immunol 163:3812-3818). Target cells were T2-A3 cells, the HLA-A3^+ breast cancer cell line BT-20, the HLA-A3^+ colon cancer cell line HT-29, the HLA-A3^+ head and neck cancer cell line CRL-2095 (all available at the American Type Culture Collection (ATCC)), the HLA-A3^+ melanoma cell line FM9, the HLA-A3^− melanoma cell line FM82, and the HLA-A3^+ melanoma cell line FM3 (Kirkin et al., (1995) Cancer Immunol Immunother 41: 71-81), with or without added HLA specific mAb W6/32 (Barnstable et al., (1978) Cell 14: 9-20) (2 μg/100 μl) (Schmidt et al., (2003) Blood 102: 571-576) or the HLA-A3 specific antibody GAPA3 (Sire et al., (1988) 140: 2422-2430).
# [1] = tested on: peptide epitope-specific INF-γ releasing effector cells; test: IFN-γ ELISPOT assay on in vitro stimulated PBL/PBMC; assay type: cell-based, human; conditions: for specific T-cell responses among PBMC: HLA-A3+ healthy controls (HD); for specific T-cell responses among PBL: HLA-A3+ renal cell carcinoma (RCC) patients
# Experimental: Peripheral blood lymphocytes (PBL) from HLA-A3^+ cancer patients or peripheral blood mononuclear cells (PBMC) from healthy controls were obtained from the University Hospital Herlev, Denmark. Cells were cryopreserved in FCS with 10% DMSO. Tissue typing was conducted at the Department of Clinical Immunology, The State Hospital, Copenhagen, Denmark. Informed consent was obtained from the patients before any of these measures.
# To extend the sensitivity of the ELISPOT assay, PBL were stimulated once before analysis. At day 0, PBL were thawed and plated in 24-well plates (Nunc, Roskilde, Denmark) in X-Vivo medium (Cambrex Bio Science Copenhagen, Vallensbaek Strand, Denmark) with 5% heat-inactivated human serum in the presence of 10 μM peptide (GenScript, Scotch Plains, US). The following day 20 U/ml IL-2 (PeproTech, London, UK) was added to the cultures. The cultured cells were tested for reactivity in the ELISPOT on day 8.
# The ELISPOT assay was used to quantify peptide epitope-specific INF-γ releasing effector cells as described previously (WO 2005/049073, Example 1.2). Briefly, nitrocellulose bottomed 96-well plates (MultiScreen MAIP N45, Millipore, Hedehusene, Denmark) were coated with anti-IFN-γ antibody (1-D1K, Mabtech, Nacka, Sweden). The wells were washed, blocked with X-vivo medium before adding 10^4 stimulator T2-A3 cells (with or without 10 μM peptide; Rho1L2: RLGLQVRKNK; Rho1: RAGLQVRKNK (GenScript, Scotch Plains, US)) and effector cells at different concentrations. The plates were incubated overnight. The following day, medium was discarded and the wells were washed prior to addition of biotinylated secondary antibody (7-B6-1-Biotin, Mabtech, Nacka, Sweden). The plates were incubated for 2 hrs, washed and Avidin-enzyme conjugate (AP-Avidin, Calbiochem, Life Technologies, Inc., Roskilde, Denmark) was added to each well. Plates were incubated at RT for 1 hr before the enzyme substrate NBT/BCIP (Gibco Life Technology, Taastrup, Denmark) was added to each well and incubated at RT for 5-10 min. The reaction was terminated with tap-water upon the emergency of dark purple spots. The spots were counted using the ImmunoSpot® Series 2.0 Analyzer (CTL Analyzers, LLC, Cleveland, US) and the peptide specific CTL frequency could be calculated from the numbers of spot-forming cells. The number of antigen-specific spots was calculated by subtracting the mean number of spots of the control wells from the mean number of spots in the positive wells; responses with a p-value<0.05 (Student t-test for unpaired samples) were considered as positive. The definition is in respect with the CIMT Monitoring Panel inter-laboratory testing project (www.c-imt.org).
# [2] = tested on: HLA-A3+ melanoma cell line FM3; test: 51Cr-release cytotoxicity assay, FM3 target cells; assay type: cell-based, human; conditions: unlabeled T2-A3 cells pulsed with peptide, inhibitor to target ratio 20:1, FIG. 5b
# Experimental: as §1, §2
# Conventional ^51Cr-release assays for CTL-mediated cytotoxicity were carried out as described elsewhere (Andersen et al., (1999) J Immunol 163:3812-3818). […]
# Sequence of HLA-A3 (P04439 25-365): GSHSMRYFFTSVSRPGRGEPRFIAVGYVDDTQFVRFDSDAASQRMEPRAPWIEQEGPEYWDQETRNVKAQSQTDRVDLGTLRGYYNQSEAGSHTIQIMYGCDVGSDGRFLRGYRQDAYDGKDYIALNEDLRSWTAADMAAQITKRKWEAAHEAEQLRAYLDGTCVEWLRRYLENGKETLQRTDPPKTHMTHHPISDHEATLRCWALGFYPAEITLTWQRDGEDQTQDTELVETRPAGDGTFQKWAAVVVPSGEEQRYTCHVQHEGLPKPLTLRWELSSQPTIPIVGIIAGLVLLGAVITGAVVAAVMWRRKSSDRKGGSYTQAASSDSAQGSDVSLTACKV
# Sequence of HLA-A3 (P61769 21-119 partner): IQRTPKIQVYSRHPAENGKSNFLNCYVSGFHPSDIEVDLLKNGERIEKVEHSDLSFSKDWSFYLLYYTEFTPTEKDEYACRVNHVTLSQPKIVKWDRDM
Compound,EC50 (HLA-A3) [µM],lysis of peptide-pulsed T2-A3 cells by CTL clone 9 (T2-A3 cells),lysis of peptide-pulsed T2-A3 cells by Rho1L2-stimulated CTL bulk cultures (T2-A3 cells),specific T-cell responses among PBMC [1],specific T-cell responses among PBL [1],cold target inhibition of clone 9 killing of FM3 cells [2],"patients with specific T-cell responses among PBL ([1]; HLA-A3+ melanoma (MM) patients, PBL stimulated once in vitro, FIG. 3)"
"CC[C@H](C)[C@H](N)C(=O)N[C@@H](CC(C)C)C(=O)N[C@@H](CCCNC(=N)N)C(=O)NCC(=O)N[C@@H](CO)C(=O)N[C@H](C(=O)N[C@@H](C)C(=O)N[C@@H](Cc1c[nH]cn1)C(=O)N[C@@H](CCCCN)C(=O)O)C(C)C [Influenza NP265-273, ILRGSVAHK, reference compound]",0.3,,,,,,
"RAGLQVRKNK [Rho1, RAGLQVRKNK]",> 40,effectively lysed,efficiently,No responses were detected,No responses were detected,,
"RLGLQVRKNK [Rho1L2, RLGLQVRKNK]",4,effectively lysed,efficiently,No responses were detected,No responses were detected,completely abrogated,3 out of 10
